# Reference: patent US11137686B2, “Material for forming underlayer film for lithography, composition for forming underlayer film for lithography, underlayer film for lithography and production method thereof, and resist pattern forming method” (Mitsubishi Gas Chemical Company, Inc., priority 2015, dated 2021)
# Experiments:
# [1] = Thermal weight loss temperature (thermogravimetric measurement, TG); assay type: physicochemical; settings: heated to 500° C. at 10° C./min, nitrogen stream
# Procedure: (Thermal Weight Loss Temperature)
# An “EXSTAR 6000 […] apparatus” manufactured by SII NanoTechnology Inc. was used, and about 5 mg of a sample was placed in an unsealed aluminum container and heated to 500° C. at a rate of temperature rise of 10° C./min in a nitrogen gas (30 mL/min) stream. The 10% thermal weight loss temperature was here measured.
# [2] = Solubility in PGME and PGMEA at 23° C.; assay type: physicochemical; settings: for solubility in PGME: 1-methoxy-2-propanol (PGME); for solubility in PGMEA: propylene glycol monomethyl ether acetate (PGMEA)
# Procedure: The amount of each compound dissolved in 1-methoxy-2-propanol (PGME) and propylene glycol monomethyl ether acetate (PGMEA) was measured at 23° C., and the results were evaluated with respect to the solubility according to the following criteria.
# Evaluation A: 20% by mass or more
# Evaluation B: 10% by mass or more and less than 20% by mass
# Evaluation C: less than 10% by mass
Compound,10% thermal weight loss temperature [1] [°C],solubility in PGME [2] [% by mass],"solubility in PGME, Evaluation [2]","solubility in PGMEA, Evaluation [2]",solubility in PGMEA [2] [% by mass]
Oc1ccc2c3c(ccc2c1)Oc1ccc2cc(O)ccc2c1C3c1ccc(I)cc1 [A-2],≥ 400,≥ 20,A (Evaluation A: 20% by mass or more),B (Evaluation B: 10% by mass or more and less than 20% by mass),
COc1cc(C2c3c(ccc4cc(O)ccc34)Oc3ccc4cc(O)ccc4c32)cc(I)c1O [A-3],≥ 400,≥ 20,A (Evaluation A: 20% by mass or more),A (Evaluation A: 20% by mass or more),≥ 20
Oc1ccc2c3c(ccc2c1)Oc1ccc2cc(O)ccc2c1C3c1ccc(I)o1 [A-4],≥ 400,≥ 20,A (Evaluation A: 20% by mass or more),A (Evaluation A: 20% by mass or more),≥ 20
Oc1ccc2ccc3c(c2c1)C(c1ccc(I)cc1)c1c(ccc2ccc(O)cc12)O3 [B-2],≥ 400,≥ 20,A (Evaluation A: 20% by mass or more),A (Evaluation A: 20% by mass or more),≥ 20
COc1cc(C2c3c(ccc4ccc(O)cc34)Oc3ccc4ccc(O)cc4c32)cc(I)c1O [B-3],≥ 400,≥ 20,A (Evaluation A: 20% by mass or more),A (Evaluation A: 20% by mass or more),≥ 20
Oc1ccc2ccc3c(c2c1)C(c1ccc(I)o1)c1c(ccc2ccc(O)cc12)O3 [B-4],≥ 400,≥ 20,A (Evaluation A: 20% by mass or more),A (Evaluation A: 20% by mass or more),≥ 20
